Assay results from ChEMBL document CHEMBL5576037, “Discovery of the first ataxia telangiectasia and Rad3-related (ATR) degraders for cancer treatment” (Eur J Med Chem, 2024).
pIC50: −log10 of the molar value. The source made the active and inactive calls. The rule behind the calls is not given here.

Legend:
HCT-116 = assay: Antiproliferative activity against human HCT-116 cells expressing wildtype ATM incubated for 72 hrs by CCK8 assay; format: functional, cell-based; conditions: HCT-116, 72 h
LoVo [1] = assay: Antiproliferative activity against ATM deficient human LoVo cells incubated for 72 hrs by CCK8 assay; format: functional, cell-based
[2] = target: Serine/threonine-protein kinase ATR (Homo sapiens, UniProt Q13535); assay: Inhibition of ATR (unknown origin)
Sequence of Serine/threonine-protein kinase ATR (Q13535 whole entry): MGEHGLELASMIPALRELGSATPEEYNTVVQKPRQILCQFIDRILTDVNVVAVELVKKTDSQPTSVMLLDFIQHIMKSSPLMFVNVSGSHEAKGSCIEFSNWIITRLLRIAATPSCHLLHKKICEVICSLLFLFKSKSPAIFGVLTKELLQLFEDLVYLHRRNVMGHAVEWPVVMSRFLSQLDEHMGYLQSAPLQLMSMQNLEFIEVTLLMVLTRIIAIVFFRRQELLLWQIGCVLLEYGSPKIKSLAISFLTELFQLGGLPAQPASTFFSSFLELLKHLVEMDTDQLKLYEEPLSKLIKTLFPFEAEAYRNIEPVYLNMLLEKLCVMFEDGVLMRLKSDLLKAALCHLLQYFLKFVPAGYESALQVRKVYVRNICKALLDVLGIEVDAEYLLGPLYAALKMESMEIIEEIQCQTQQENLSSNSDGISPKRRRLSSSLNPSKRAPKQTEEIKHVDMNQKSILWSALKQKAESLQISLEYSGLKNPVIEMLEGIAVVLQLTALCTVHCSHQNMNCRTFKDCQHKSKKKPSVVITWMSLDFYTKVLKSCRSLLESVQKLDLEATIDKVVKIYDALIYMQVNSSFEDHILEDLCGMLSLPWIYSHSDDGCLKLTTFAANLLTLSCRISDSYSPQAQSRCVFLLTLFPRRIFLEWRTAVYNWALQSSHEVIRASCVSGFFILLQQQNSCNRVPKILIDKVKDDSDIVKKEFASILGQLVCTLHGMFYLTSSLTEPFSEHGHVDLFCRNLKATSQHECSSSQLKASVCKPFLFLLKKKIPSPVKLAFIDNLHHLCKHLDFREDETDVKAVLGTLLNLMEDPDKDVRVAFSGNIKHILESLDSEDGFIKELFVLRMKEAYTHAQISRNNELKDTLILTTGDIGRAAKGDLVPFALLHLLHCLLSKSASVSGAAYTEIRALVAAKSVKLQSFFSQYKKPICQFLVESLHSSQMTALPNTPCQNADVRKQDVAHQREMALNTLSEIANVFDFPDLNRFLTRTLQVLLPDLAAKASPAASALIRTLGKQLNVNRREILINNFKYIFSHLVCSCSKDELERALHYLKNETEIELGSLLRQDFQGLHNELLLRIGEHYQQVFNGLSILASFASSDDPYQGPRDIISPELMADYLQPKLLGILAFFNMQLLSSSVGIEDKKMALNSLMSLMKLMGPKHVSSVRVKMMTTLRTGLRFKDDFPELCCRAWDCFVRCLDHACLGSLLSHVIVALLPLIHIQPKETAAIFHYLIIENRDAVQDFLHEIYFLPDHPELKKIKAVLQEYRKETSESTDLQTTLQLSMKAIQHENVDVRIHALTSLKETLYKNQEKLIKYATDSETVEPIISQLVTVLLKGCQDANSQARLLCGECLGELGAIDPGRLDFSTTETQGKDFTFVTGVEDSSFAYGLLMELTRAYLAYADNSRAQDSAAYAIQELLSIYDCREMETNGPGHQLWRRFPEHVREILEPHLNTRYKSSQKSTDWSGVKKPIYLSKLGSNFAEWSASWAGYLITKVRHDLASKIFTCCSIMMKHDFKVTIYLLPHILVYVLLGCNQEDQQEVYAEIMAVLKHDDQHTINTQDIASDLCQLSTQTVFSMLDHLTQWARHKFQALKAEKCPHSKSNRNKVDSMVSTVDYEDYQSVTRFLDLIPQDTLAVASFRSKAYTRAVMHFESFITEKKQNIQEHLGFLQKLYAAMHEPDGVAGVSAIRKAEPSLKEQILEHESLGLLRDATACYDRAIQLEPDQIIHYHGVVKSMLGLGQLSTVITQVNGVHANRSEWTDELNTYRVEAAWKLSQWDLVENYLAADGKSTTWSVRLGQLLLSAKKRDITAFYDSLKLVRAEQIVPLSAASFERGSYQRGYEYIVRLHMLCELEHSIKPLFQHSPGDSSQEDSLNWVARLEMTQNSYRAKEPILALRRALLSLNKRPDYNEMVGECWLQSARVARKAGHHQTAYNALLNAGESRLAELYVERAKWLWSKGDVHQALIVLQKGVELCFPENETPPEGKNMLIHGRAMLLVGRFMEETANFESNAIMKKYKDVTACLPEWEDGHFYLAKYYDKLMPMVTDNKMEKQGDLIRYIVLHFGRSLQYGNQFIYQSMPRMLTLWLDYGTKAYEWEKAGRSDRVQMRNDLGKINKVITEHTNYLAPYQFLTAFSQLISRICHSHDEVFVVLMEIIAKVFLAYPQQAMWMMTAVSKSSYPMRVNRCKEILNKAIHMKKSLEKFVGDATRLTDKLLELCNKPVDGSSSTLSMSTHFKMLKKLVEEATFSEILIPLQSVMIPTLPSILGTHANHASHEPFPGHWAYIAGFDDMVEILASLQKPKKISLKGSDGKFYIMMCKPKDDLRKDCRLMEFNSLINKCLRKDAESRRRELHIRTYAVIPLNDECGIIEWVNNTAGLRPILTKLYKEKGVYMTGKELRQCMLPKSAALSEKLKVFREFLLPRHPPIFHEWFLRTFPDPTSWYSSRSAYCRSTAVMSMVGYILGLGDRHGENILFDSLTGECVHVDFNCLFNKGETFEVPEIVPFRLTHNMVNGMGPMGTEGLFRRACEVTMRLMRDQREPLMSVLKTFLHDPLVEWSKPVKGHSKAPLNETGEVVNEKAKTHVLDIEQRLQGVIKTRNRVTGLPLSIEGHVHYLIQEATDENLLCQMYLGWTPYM

[3] = Selectivity ratio for inhibition of ATM (unknown origin) to inhibition of ATR (unknown origin)
[4] = Selectivity ratio for inhibition of PI3K (unknown origin) to inhibition of ATR (unknown origin)
[5] = target: Protein cereblon/Serine/threonine-protein kinase ATR (Homo sapiens, UniProt Q13535+Q96SW2); assay: PROTAC activity at CRBN/ATR in human LoVo cells assessed as induction of ATR degradation; format: cell-based
Sequence of Protein cereblon/Serine/threonine-protein kinase ATR (Q13535 whole entry, looked up): as the sequence (Q13535 whole entry) above
Sequence of Protein cereblon/Serine/threonine-protein kinase ATR (Q96SW2 whole entry, looked up): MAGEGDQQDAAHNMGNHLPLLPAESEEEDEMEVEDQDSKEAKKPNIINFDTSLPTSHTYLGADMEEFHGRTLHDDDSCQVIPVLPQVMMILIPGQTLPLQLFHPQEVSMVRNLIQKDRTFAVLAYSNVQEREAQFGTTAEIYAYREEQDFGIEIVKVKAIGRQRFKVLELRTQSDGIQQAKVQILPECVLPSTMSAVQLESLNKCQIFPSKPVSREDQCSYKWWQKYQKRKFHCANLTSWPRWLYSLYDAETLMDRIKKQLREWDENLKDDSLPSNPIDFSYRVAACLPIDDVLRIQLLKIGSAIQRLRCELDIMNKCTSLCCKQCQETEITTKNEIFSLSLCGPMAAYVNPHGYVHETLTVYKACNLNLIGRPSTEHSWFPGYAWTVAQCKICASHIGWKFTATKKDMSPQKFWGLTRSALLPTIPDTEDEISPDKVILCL

LoVo [6] = assay: Induction of DNA damage in human LoVo cells assessed as increase in gammaH2AX expression at 1 uM incubated for 72 hrs by DAPI staining based immunofluorescence analysis; format: functional, cell-based
LoVo [7] = assay: Induction of apoptosis in human LoVo cells assessed as apoptotic rate at 1 uM incubated for 48 hrs by Annexin V-FITC/PI staining based flow cytometric analysis (reference value: 5.32 %); format: functional
LoVo [8] = assay: Cell cycle arrest in human LoVo cells assessed as accumulation of cells at G0/G1 phase at 1 uM incubated for 72 hrs by PI staining based flow cytometric analysis (reference value: 52.3 %); format: functional
LoVo [9] = assay: Cell cycle arrest in human LoVo cells assessed as accumulation of cells at S phase at 1 uM incubated for 72 hrs by PI staining based flow cytometric analysis (reference value: 25.5 %); format: functional
LoVo [10] = assay: Cell cycle arrest in human LoVo cells assessed as accumulation of cells at G2/M phase at 1 uM incubated for 72 hrs by PI staining based flow cytometric analysis (reference value: 22.2 %); format: functional
LoVo [11] = assay: Synergistic antitumor activity against human LoVo cells xenografted in BALB/c nude mouse assessed as tumor growth inhibition at 12.5 mg/kg, po administered once daily for 15 days in presence of cisplatin relative to control; format: functional; conditions: 360 h, time 15 day, read-out: TGI

Row | Structure (SMILES) | pIC50 (HCT-116) | pIC50 (LoVo [1]) | further results
1 | C[C@@H]1COCCN1c1cc(C2([S@@](C)(=O)=NC(=O)CCc3cn(CCCCCCC(=O)Nc4cccc5c4C(=O)N(C4CCC(=O)NC4=O)C5=O)nn3)CC2)nc(-c2ccnc3[nH]ccc23)n1 (stereo not given in full) | < 4.30 | 4.70 | 
2 | C[C@@H]1COCCN1c1cc(C2([S@@](C)(=O)=NC(=O)CCc3cn(CCCCCCCCC(=O)Nc4cccc5c4C(=O)N(C4CCC(=O)NC4=O)C5=O)nn3)CC2)nc(-c2ccnc3[nH]ccc23)n1 (stereo not given in full) | < 4.30 | 4.49 | 
3 | C[C@@H]1COCCN1c1cc(C2([S@@](C)(=O)=NC(=O)CCc3cn(CCCCCCCCCCC(=O)Nc4cccc5c4C(=O)N(C4CCC(=O)NC4=O)C5=O)nn3)CC2)nc(-c2ccnc3[nH]ccc23)n1 (stereo not given in full) | < 4.30 | 4.79 | 
4 | C[C@@H]1COCCN1c1cc(C2([S@@](C)(=O)=NC(=O)CCc3cn(CCCCC(=O)Nc4cccc5c4C(=O)N(C4CCC(=O)NC4=O)C5=O)nn3)CC2)nc(-c2ccnc3[nH]ccc23)n1 (stereo not given in full) | < 4.30 | 4.55 | 
5 | Cc1ncsc1-c1ccc(CNC(=O)[C@@H]2C[C@@H](O)CN2C(=O)[C@@H](NC(=O)CCCCCCCCCCn2cc(CCC(=O)N=[S@](C)(=O)C3(c4cc(N5CCOC[C@H]5C)nc(-c5ccnc6[nH]ccc56)n4)CC3)nn2)C(C)(C)C)cc1 | < 4.30 | < 4.30 | 
6 | Cc1ncsc1-c1ccc(CNC(=O)[C@@H]2C[C@@H](O)CN2C(=O)[C@@H](NC(=O)CCCCn2cc(CCC(=O)N=[S@](C)(=O)C3(c4cc(N5CCOC[C@H]5C)nc(-c5ccnc6[nH]ccc56)n4)CC3)nn2)C(C)(C)C)cc1 | < 4.30 | < 4.30 | 
7 | Nc1cccc2c1C(=O)N(C1CCC(=O)NC1=O)C2=O (stereo not given) [POMALIDOMIDE] | < 4.30 | < 4.30 | 
8 | C[C@@H]1COCCN1c1cc(C2([S@@](C)(=O)=NC(=O)CCc3cn(CCOCCOCC(=O)Nc4cccc5c4C(=O)N(C4CCC(=O)NC4=O)C5=O)nn3)CC2)nc(-c2ccnc3[nH]ccc23)n1 (stereo not given in full) | < 4.30 | 4.57 | 
9 | Nc1nn2cc(F)cnc2c1C(=O)Nc1cncc(F)c1N1CCC(C(=O)N2CCN(C3COC3)CC2)CC1 [M4344] |  |  | pIC50 [2]: 9.82; Selectivity ratio [3]: > 50; Selectivity ratio [4]: > 50
10 | Cc1ncsc1-c1ccc(CNC(=O)[C@@H]2C[C@@H](O)CN2C(=O)[C@@H](NC(=O)CCCCCCCn2cc(CCC(=O)N=[S@](C)(=O)C3(c4cc(N5CCOC[C@H]5C)nc(-c5ccnc6[nH]ccc56)n4)CC3)nn2)C(C)(C)C)cc1 | < 4.30 | < 4.30 | 
11 | C[C@@H]1COCCN1c1cc(C2([S@@](C)(=O)=NC(=O)CCc3cn(CCOCCOCCOCC(=O)Nc4cccc5c4C(=O)N(C4CCC(=O)NC4=O)C5=O)nn3)CC2)nc(-c2ccnc3[nH]ccc23)n1 (stereo not given in full) | < 4.30 | < 4.30 | 
12 | C[C@@H]1COCCN1c1cc(C2([S@@](C)(=O)=NC(=O)CCc3cn(CCCCCC(=O)Nc4cccc5c4C(=O)N(C4CCC(=O)NC4=O)C5=O)nn3)CC2)nc(-c2ccnc3[nH]ccc23)n1 (stereo not given in full) | < 4.30 | 4.63 | 
13 | CCN1C(=O)CCC(N2C(=O)c3cccc(NC(=O)CCCCCCCCCn4cc(CCC(=O)N=[S@](C)(=O)C5(c6cc(N7CCOC[C@H]7C)nc(-c7ccnc8[nH]ccc78)n6)CC5)nn4)c3C2=O)C1=O (stereo not given in full) | < 4.30 | < 4.30 | Activity [5]: inactive
14 | C[C@@H]1COCCN1c1cc(C2([S@](C)(=N)=O)CC2)nc(-c2cc[nH]c3nccc2-3)n1 [CERALASERTIB] | 5.44 | 6.08 | Activity (LoVo [6]): Active; Activity (LoVo [7]): 42%; Activity (LoVo [8]): 71.8%; Activity (LoVo [9]): 16.7%; Activity (LoVo [10]): 11.5%; inhibition in vivo at 12.5 mg/kg (LoVo [11]): 52.7%
15 | Cc1ncsc1-c1ccc(CNC(=O)[C@@H]2C[C@@H](O)CN2C(=O)[C@@H](N)C(C)(C)C)cc1 | < 4.30 | < 4.30 | 
16 | C[C@@H]1COCCN1c1cc(C2([S@@](C)(=O)=NC(=O)CCc3cn(CCCCCCCCCC(=O)Nc4cccc5c4C(=O)N(C4CCC(=O)NC4=O)C5=O)nn3)CC2)nc(-c2ccnc3[nH]ccc23)n1 (stereo not given in full) | < 4.30 | 4.67 | 
